Laboratory results reported in paper PMC12754783 (2025).
Values belong to the compound of their own block, whether it stands above or below them.

What was measured:
[1] = system: 5YEY (DNA, G4) GGGTTAGGGTTAGGGTTTGGG; assay: native ESI-MS titration; details: 0.5 mM K+, 100 mM TMAA pH 6.8, 10 µM DNA
[2] = system: T24 (DNA, single strand) TTTTTTTTTTTTTTTTTTTTTTTT; assay: native ESI-MS titration; details: 0.5 mM K+; 100 mM TMAA pH 6.8, 10 µM DNA, up to 40 µM ligand
[3] = system: 1XAV (DNA, G4) TGAGGGTGGGTAGGGTGGGTAA; assay: native ESI-MS screening (single concentration); details: 0.5 mM K+, 100 mM TMAA pH 6.8, 10 µM DNA, 20 µM ligand
[4] = system: 222T (DNA, G4) TGGGTTGGGTTGGGTTGGGT; assay: native ESI-MS screening (single concentration); details: 0.5 mM K+, 100 mM TMAA pH 6.8, 10 µM DNA, 20 µM ligand
[5] = system: 222T_mA (DNA, G4) TGGGTTGGGAAGGGTTGGGT; assay: native ESI-MS screening (single concentration); details: 0.5 mM K+, 100 mM TMAA pH 6.8, 10 µM DNA, 20 µM ligand
[6] = system: 5YEY (DNA, G4) GGGTTAGGGTTAGGGTTTGGG; assay: native ESI-MS screening (single concentration); details: 0.5 mM K+; 100 mM TMAA pH 6.8, 10 µM DNA, 20 µM ligand; stepwise KD1 (KD2 40)
[7] = system: 1XAV (DNA, G4) TGAGGGTGGGTAGGGTGGGTAA; assay: native ESI-MS titration; details: 0.5 mM K+; 100 mM TMAA pH 6.8, 10 µM DNA; stepwise KD1
[8] = system: 21G (DNA, G4) GGGTTAGGGTTAGGGTTAGGG; assay: native ESI-MS titration; details: 0.5 mM K+; 100 mM TMAA pH 6.8, 10 µM DNA; KD1 differs 20-fold from 5YEY
[9] = system: 222T (DNA, G4) TGGGTTGGGTTGGGTTGGGT; assay: UV melting 295 nm; details: 0.5 mM K+; 100 mM TMAA pH 6.8; 10 µM DNA, 20 µM QQPQ; two transitions
[10] = system: 5YEY (DNA, G4) GGGTTAGGGTTAGGGTTTGGG; assay: UV melting 295 nm; details: 0.5 mM K+; 100 mM TMAA pH 6.8; 10 µM DNA, 20 µM QQPQ
[11] = system: T30177TT (DNA, G4) TTGTGGTGGGTGGGTGGGT; assay: UV melting 295 nm; details: 0.5 mM K+; 100 mM TMAA pH 6.8; 10 µM DNA, 20 µM QQPQ; two transitions
TG4T (DNA, G4) TGGGGT = assay: native ESI-MS screening (single concentration); details: K+ 0.5 mM (KCl) with 100 mM TMAA, or NH4+ 150 mM; source does not say which; pH 6.8, 10 µM DNA, 20 µM ligand; stepwise KD1
[12] = system: 22GT_18T (DNA, G4) GGGTTAGGGTTAGGGTTTGGGT; assay: native ESI-MS screening (single concentration); details: 0.5 mM K+; 100 mM TMAA pH 6.8, 10 µM DNA, 20 µM ligand; stepwise KD1
[13] = system: 26TTA (DNA, G4) TTAGGGTTAGGGTTAGGGTTAGGGTT; assay: native ESI-MS screening (single concentration); details: 0.5 mM K+; 100 mM TMAA pH 6.8, 10 µM DNA, 20 µM ligand; stepwise KD1
[14] = stepwise KD1, exact value in Table S3

SMILES: CC(=O)Nc1cccc2c(OCCCN)cc(C(=O)Nc3cccc4c(OCCCN)cc(C(=O)Nc5cccc6c(OCCCN)cc(C(=O)Nc7cccc8c(OCCCN)cc(C(=O)Nc9cccc%10c(OCCCN)cc(C(=O)O)nc9%10)nc78)nc56)nc34)nc12
KD1 [1, 14]: < 10 µM

SMILES: CC(=O)Nc1cccc2c(OCCCN)cc(C(=O)Nc3cccc4c(OCCCN)cc(C(=O)Nc5cccc6c(OCCCN)cc(C(=O)Nc7cccc8c(OCCCN)cc(C(=O)Nc9cccc%10c(OCCCN)cc(C(=O)Nc%11cccc%12c(OCCCN)cc(C(=O)Nc%13cccc%14c(OCCCN)cc(C(=O)Nc%15cccc%16c(OCCCN)cc(C(=O)O)nc%15%16)nc%13%14)nc%11%12)nc9%10)nc78)nc56)nc34)nc12
KD1 [7]: 28 ± 6.7 µM

The remaining lines, values ahead:

KD [2]: > 100 µM
KD1 ([3]; stepwise KD1 (KD2 7.4)): 5.2 µM
KD1 ([4]; stepwise KD1 (KD2 5.4)): 2.3 µM
KD1 ([5]; stepwise KD1 (KD2 3.4)): 8.9 µM
KD1 [6]: 75 µM
SMILES: CC(=O)Nc1cccc2c(OCCCN)cc(C(=O)NCc3cccc(C(=O)NCc4cccc(C(=O)Nc5cccc6c(OCCCN)cc(C(=O)O)nc56)n4)n3)nc12

KD1 [7]: 0.075 ± 0.059 µM
KD1 [1, 14]: < 10 µM
KD1 [8]: 330 ± 23 µM
KD1 ([4]; stepwise KD1 (KD2 2.0)): 1.1 µM
KD1 ([5]; stepwise KD1 (KD2 4.5)): 12 µM
SMILES: CC(=O)Nc1cccc2c(OCCCN)cc(C(=O)Nc3cccc4c(OCCCN)cc(C(=O)Nc5cccc6c(OCCCN)cc(C(=O)Nc7cccc8c(OCCCN)cc(C(=O)O)nc78)nc56)nc34)nc12

ΔTm [9]: ~ +26 °C
ΔTm [10]: +8.2 °C
ΔTm [11]: 17 °C
KD1 ([1]; stepwise KD1 (KD2 200 ± 70), screening gave 1.5): 0.54 ± 0.1 µM
KD [2]: > 100 µM
KD1 ([3]; stepwise KD1 (KD2 1.5)): 0.5 µM
KD1 ([4]; stepwise KD1 (KD2 2.1)): 0.5 µM
KD1 ([5]; stepwise KD1 (KD2 1.0)): 2.2 µM
KD1 (TG4T (DNA, G4) TGGGGT): ~ 5 µM
KD1 [12]: ~ 5 µM
KD1 [13]: ~ 5 µM
SMILES: CC(=O)Nc1cccc2c(OCCCN)cc(C(=O)Nc3cccc4c(OCCCN)cc(C(=O)NCc5cccc(C(=O)Nc6cccc7c(OCCCN)cc(C(=O)O)nc67)n5)nc34)nc12

KD [2]: > 100 µM
KD1 ([3]; stepwise KD1 (KD2 27)): 15 µM
KD1 ([4]; stepwise KD1 (KD2 22)): 4.8 µM
KD1 ([5]; stepwise KD1 (KD2 14)): 25 µM
SMILES: CC(=O)Nc1cccc2c(OCCCN)cc(C(=O)NCc3cccc(C(=O)Nc4cccc5c(OCCCN)cc(C(=O)O)nc45)n3)nc12
